# Data: ChEMBL document CHEMBL1201862, “PubChem BioAssay data set” (2004)
#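 Where inhibition never reached the appropriate level, the endpoint shown equals the highest concentration tested. Otherwise, values were interpolated linearly from a five-concentration, 48-hour dose response in 96-well plates. GI50 = concentration required for 50% inhibition of growth.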 The source made the active and inactive calls. Cut-off read from the data, not from the text of the source: active = GI50 up to about 1.1 µM and inactive = higher.
# How the values were obtained:
# Assay in all cases: NCI anticancer screen, dose series, 48 h
# [1] = tested on: BT-549
# [2] = tested on: M14
# [3] = tested on: NCI/ADR-RES
# [4] = tested on: ACHN
# [5] = tested on: HL-60
# [6] = tested on: NCI-H522
# [7] = tested on: PC-3
# [8] = tested on: KM12
# [9] = tested on: NCI-H23
# [10] = tested on: MOLT-4
# [11] = tested on: OVCAR-5
# [12] = tested on: SK-OV-3
# [13] = tested on: CAKI-1
# [14] = tested on: NCI-H226
# [15] = tested on: IGROV-1
# [16] = tested on: DU-145
# [17] = tested on: EKVX
# [18] = tested on: 786-0
# [19] = tested on: K562
# [20] = tested on: MCF7
# [21] = tested on: A498
# [22] = tested on: MDA-MB-231
# [23] = tested on: TK-10
# [24] = tested on: SNB-19
# [25] = tested on: RPMI-8226
# [26] = tested on: MDA-MB-435
# [27] = tested on: CCRF-CEM
# [28] = tested on: SK-MEL-28
# [29] = tested on: Malme-3M
# [30] = tested on: UACC-257
# [31] = tested on: HT-29
# [32] = tested on: SF-539
# [33] = tested on: NCI-H460
# [34] = tested on: OVCAR-3
# [35] = tested on: SF-268
# [36] = tested on: UACC-62
# [37] = tested on: SNB-75
# [38] = tested on: U-251
# [39] = tested on: OVCAR-8
# [40] = tested on: HCT-15
# [41] = tested on: SW-620
# [42] = tested on: SK-MEL-5
# [43] = tested on: SF-295
# [44] = tested on: MDA-N
# [45] = tested on: HCC 2998
# [46] = tested on: UO-31
# [47] = tested on: SR
# [48] = tested on: COLO 205
# [49] = tested on: OVCAR-4
# [50] = tested on: HCT-116
# [51] = tested on: LOX IMVI
# [52] = tested on: A549
# [53] = tested on: SN12C
# [54] = tested on: HOP-92
# [55] = tested on: HOP-62
# [56] = tested on: Hs-578T
# [57] = tested on: RXF 393
# [58] = tested on: T47D
# [59] = tested on: SK-MEL-2
structure (smiles),measurement,setting,value
CC1CC[C@@]2(OC1)OC1C[C@H]3[C@@H]4CC[C@H]5CC(OC6OC(CO)C(OC7OC(CO)C(O)C(O)C7O)C(O)C6O)CCC5(C)[C@H]4CCC3(C)C1[C@@H]2C (some centres undefined),GI50,[1],4.86 µM (inactive)
same,GI50,[2],8.89 µM (inactive)
same,GI50,[3],9.64 µM (inactive)
same,GI50,[4],7.53 µM (inactive)
same,GI50,[5],8.87 µM (inactive)
same,GI50,[6],6.19 µM (inactive)
same,GI50,[7],7.45 µM (inactive)
same,GI50,[8],8.18 µM (inactive)
same,GI50,[9],8.81 µM (inactive)
same,GI50,[10],9.14 µM (inactive)
same,GI50,[11],8.65 µM (inactive)
same,GI50,[12],10.1 µM (inactive)
same,GI50,[13],8.49 µM (inactive)
same,GI50,[14],8.81 µM (inactive)
same,GI50,[15],2.52 µM (inactive)
same,GI50,[16],8.3 µM (inactive)
same,GI50,[17],5.33 µM (inactive)
same,GI50,[18],8.26 µM (inactive)
same,GI50,[19],12.5 µM (inactive)
same,GI50,[20],5.85 µM (inactive)
same,GI50,[21],8.65 µM (inactive)
same,GI50,[22],9.1 µM (inactive)
same,GI50,[23],9.64 µM (inactive)
same,GI50,[24],9.04 µM (inactive)
same,GI50,[25],13.7 µM (inactive)
same,GI50,[26],9.25 µM (inactive)
same,GI50,[27],9.16 µM (inactive)
same,GI50,[28],9.2 µM (inactive)
same,GI50,[29],8.13 µM (inactive)
same,GI50,[30],9.64 µM (inactive)
same,GI50,[31],7.35 µM (inactive)
same,GI50,[32],8.38 µM (inactive)
same,GI50,[33],9.04 µM (inactive)
same,GI50,[34],6.1 µM (inactive)
same,GI50,[35],9.57 µM (inactive)
same,GI50,[36],10.1 µM (inactive)
same,GI50,[37],9.93 µM (inactive)
same,GI50,[38],8.99 µM (inactive)
same,GI50,[39],8.45 µM (inactive)
same,GI50,[40],12.6 µM
same,GI50,[41],8.81 µM (inactive)
same,GI50,[42],8.69 µM (inactive)
same,GI50,[43],8.55 µM (inactive)
same,GI50,[44],8.2 µM (inactive)
same,GI50,[45],5.85 µM (inactive)
same,GI50,[46],11.1 µM (inactive)
same,GI50,[47],9.59 µM (inactive)
same,GI50,[48],6.89 µM (inactive)
same,GI50,[49],8.81 µM (inactive)
same,GI50,[50],7.53 µM (inactive)
same,GI50,[51],4.58 µM (inactive)
same,GI50,[52],9.35 µM (inactive)
same,GI50,[53],7.35 µM (inactive)
same,GI50,[54],8.57 µM (inactive)
same,GI50,[55],6.03 µM (inactive)
same,GI50,[56],8.57 µM (inactive)
same,GI50,[57],10.7 µM (inactive)
same,GI50,[58],9.31 µM (inactive)
same,GI50,[59],7.85 µM (inactive)
